Experimental data as given in ChEMBL document CHEMBL1140670, “Synthesis and evaluation of a phosphonate analogue of the soluble guanylate cyclase activator YC-1” (Bioorg Med Chem Lett, 2007).

How the values were obtained:
[1] = Activation of sGC heme complex expressed in Sf9 cells at 150 uM in presence of carbon monoxide relative to control; conditions: Homo sapiens
[2] = Activation of sGC heme complex expressed in Sf9 cells at 800 uM relative to control; conditions: Homo sapiens
[3] = Activation of sGC heme complex expressed in Sf9 cells at 800 uM in presence of nitric oxide relative to control; conditions: Homo sapiens
[4] = Activation of sGC heme complex expressed in Sf9 cells at 800 uM in presence of carbon monoxide relative to control; conditions: Homo sapiens
[5] = Aqueous solubility of the compound; type: physicochemical
[6] = Activation of sGC heme complex expressed in Sf9 cells at 150 uM relative to control; conditions: Homo sapiens
[7] = Activation of sGC heme complex expressed in Sf9 cells at 150 uM in presence of nitric oxide relative to control; conditions: Homo sapiens

solubility [5] [µM]	SMILES	Activity [1]	Activity [2]	Activity [3]	Activity [4]	Activity [6]	Activity [7]
> 800	O=P(O)(O)Cc1ccc(-c2nn(Cc3ccccc3)c3ccccc23)o1	16	1.4	10	1.2	5.2	38
–	OCc1ccc(-c2nn(Cc3ccccc3)c3ccccc23)o1	87	–	–	–	6.4	270
